# From paper PMC2661907, “The Proteasome Is a Molecular Target of Environmental Toxic Organotins” (Environmental Health Perspectives, 2008)
# Biological target: T1, 20S proteasome (chymotrypsin-like activity, β5 subunit) (Oryctolagus cuniculus, UniProt G1T4Q9)
# T1 construct: gene PSMB5; purified rabbit 20S proteasome; with other subunits of the 20S proteasome
# T1 sequence (G1T4Q9 1-263): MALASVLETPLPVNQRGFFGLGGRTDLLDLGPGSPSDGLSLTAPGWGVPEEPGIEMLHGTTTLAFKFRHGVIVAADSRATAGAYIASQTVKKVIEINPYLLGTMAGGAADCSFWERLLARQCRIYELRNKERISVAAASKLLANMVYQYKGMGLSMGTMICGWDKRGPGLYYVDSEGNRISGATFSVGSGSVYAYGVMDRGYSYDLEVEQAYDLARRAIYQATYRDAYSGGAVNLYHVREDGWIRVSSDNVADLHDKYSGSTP
# Test: fluorogenic peptide CT-like activity assay on purified
# Format: biochemical
structure (smiles),measurement,value
"CCC[CH2][Sn]([Cl])([CH2]CCC)[CH2]CCC [TBT, tributyltin chloride]",IC50,15.6 µM
